# Source: patent publication US10167279B2 (NOVARTIS AG, priority 2014, dated 2019)
# Experiments:
# [1] = molecular target: C-Raf FL (Homo sapiens (Human), UniProt P04049, Y340E/Y341E); assay: In vitro Raf activity determination (Alpha Screen, phospho-MEK), C-Raf FL (full length, Y340E/Y341E); assay type: biochemical; settings: ATP 1 μM; 60 min pre-incubation; 1 hour reaction; column head does not say FL or TR
# Procedure, shortened: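 Sf9-expressed C-Raf incubated with biotinylated kinase-dead MEK1 (K97R) in 50 mM Tris pH 7.5, 15 mM MgCl2, 0.01% BSA, 1 mM DTT with compound, 60 min at room temperature. Phospho-MEK detected by anti-p-MEK AlphaScreen luminescence; IC50 by non-linear regression.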
# [2] = molecular target: b-Raf (V600E) (Homo sapiens (Human), UniProt P15056, V600E); assay: In vitro Raf activity determination (Alpha Screen, phospho-MEK), b-Raf (V600E); assay type: biochemical; settings: ATP 10 μM, 60 min pre-incubation, 3 hours reaction
# Text: The activity of a compound according to the present invention can be assessed by well-known in vitro & in vivo methods. Raf inhibition data provided herein was obtained using the following procedures.
# Sf9 cells co-expressing both proteins were lysed and subjected to immobilized nickel chromatography and eluted with Imidazole. A second column (StrepII binding column) was used and eluted with desthiobiotin. Protein Tags were removed using Prescission enzyme and the protein was further purified using a flowthrough step to remove tags.
# Full length MEK1 with an inactivating K97R ATP binding site mutation is utilized as a RAF substrate. The MEK1 cDNA was subcloned with an N-terminal (his)6 tag into a vector for E. Coli expression. The MEK1 substrate was purified from E. Coli lysate by nickel affinity chromatography followed by anion exchange. The final MEK1 preparation was biotinylated (Pierce EZ-Link Sulfo-NHS-LC-Biotin) and concentrated.
# The plate was incubated for 60 minutes at room temperature. […] The additions were carried out under dark conditions to protect the detection beads from light. A lid was placed on top of the plate and incubated for 1 hour at room temperature, after which the luminescence was read on a PerkinElmer Envision instrument.
# Sequence of b-Raf (V600E) (P15056 whole entry V600E): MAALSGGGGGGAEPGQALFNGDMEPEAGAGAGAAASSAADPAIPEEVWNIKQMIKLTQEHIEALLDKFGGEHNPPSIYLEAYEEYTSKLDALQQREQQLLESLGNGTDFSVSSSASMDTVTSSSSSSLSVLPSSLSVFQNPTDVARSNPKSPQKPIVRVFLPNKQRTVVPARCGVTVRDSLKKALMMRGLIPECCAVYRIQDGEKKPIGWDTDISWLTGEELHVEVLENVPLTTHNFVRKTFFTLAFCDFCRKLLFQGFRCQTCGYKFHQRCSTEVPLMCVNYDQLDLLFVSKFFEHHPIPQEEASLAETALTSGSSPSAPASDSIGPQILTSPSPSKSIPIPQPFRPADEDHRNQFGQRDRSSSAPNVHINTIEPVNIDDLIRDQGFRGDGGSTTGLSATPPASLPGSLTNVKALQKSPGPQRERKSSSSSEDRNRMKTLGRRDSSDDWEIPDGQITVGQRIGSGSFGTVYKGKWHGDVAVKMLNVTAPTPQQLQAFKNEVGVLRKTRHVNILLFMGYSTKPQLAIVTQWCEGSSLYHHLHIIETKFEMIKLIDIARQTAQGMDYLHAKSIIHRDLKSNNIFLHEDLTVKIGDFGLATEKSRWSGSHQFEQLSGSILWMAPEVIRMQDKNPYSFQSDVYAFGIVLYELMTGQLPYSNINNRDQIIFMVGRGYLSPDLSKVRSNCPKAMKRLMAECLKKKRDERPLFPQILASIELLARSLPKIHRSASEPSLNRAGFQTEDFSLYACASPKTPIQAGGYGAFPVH
# Sequence of C-Raf FL (P04049 whole entry Y340E/Y341E): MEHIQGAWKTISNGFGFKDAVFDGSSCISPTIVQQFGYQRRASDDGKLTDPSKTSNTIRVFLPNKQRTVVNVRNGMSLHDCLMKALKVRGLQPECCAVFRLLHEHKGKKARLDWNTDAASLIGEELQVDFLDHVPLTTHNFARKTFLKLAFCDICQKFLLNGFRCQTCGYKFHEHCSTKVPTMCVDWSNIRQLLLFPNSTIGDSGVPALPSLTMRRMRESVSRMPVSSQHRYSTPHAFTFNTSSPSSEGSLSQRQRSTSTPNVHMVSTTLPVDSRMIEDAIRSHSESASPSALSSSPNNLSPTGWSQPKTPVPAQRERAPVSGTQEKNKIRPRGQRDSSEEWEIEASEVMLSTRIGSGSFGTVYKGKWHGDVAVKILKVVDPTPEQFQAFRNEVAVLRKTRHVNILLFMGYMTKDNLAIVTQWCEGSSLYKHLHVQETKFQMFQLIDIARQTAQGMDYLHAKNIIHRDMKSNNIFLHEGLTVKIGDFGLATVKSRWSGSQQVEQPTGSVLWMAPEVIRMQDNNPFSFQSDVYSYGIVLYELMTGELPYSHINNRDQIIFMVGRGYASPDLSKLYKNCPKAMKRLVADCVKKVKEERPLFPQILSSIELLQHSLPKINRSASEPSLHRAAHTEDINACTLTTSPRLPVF
# Sequence of C-Raf FL (P63104 whole entry partner): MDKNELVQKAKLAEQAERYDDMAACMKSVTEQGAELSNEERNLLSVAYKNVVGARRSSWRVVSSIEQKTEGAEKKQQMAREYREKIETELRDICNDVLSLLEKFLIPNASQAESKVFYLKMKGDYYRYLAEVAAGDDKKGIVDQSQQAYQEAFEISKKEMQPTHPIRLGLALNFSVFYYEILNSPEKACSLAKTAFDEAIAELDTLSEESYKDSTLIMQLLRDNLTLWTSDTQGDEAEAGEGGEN
Structure (SMILES),IC50 [1],IC50 [2]
"COc1ncc(-c2cc(NC(=O)c3ccnc(C(C)(C)C#N)c3)ccc2C)cc1C1(C=O)COC1 [Example 43, 2-(2-cyanopropan-2-yl)-N-(3-(5-(3-formyloxetan-3-yl)-6-methoxypyridin-3-yl)-4-methylphenyl)isonicotin-amide]",2.67 nM,10.2 nM
"COc1ncc(-c2cc(NC(=O)c3ccnc(C(C)(C)C#N)c3)ccc2C)cc1C1(O)COC1 [Example 72, 2-(2-cyanopropan-2-yl)-N-(3-(5-(3-hydroxyoxetan-3-yl)-6-methoxypyridin-3-yl)-4-methylphenyl)isonicotin-amide]",1.04 nM,4.2 nM
"COc1ncc(-c2cc(NC(=O)c3ccnc(C(C)(C)C#N)c3)ccc2C)cc1C1(F)COC1 [Example 30, 2-(2-cyanopropan-2-yl)-N-(3-(5-(3-fluorooxetan-3-yl)-6-methoxypyridin-3-yl)-4-methylphenyl)isonicotin-amide]",0.229 nM,1.3 nM
"COc1ncc(-c2cc(NC(=O)c3ccnc(C(C)(C)F)c3)cnc2C)cc1C1(O)COC1 [Example 76, 2-(2-fluoropropan-2-yl)-N-(5′-(3-hydroxyoxetan-3-yl)-6′-methoxy-2-methyl-[3,3′-bipyridin]-5-yl)isonicotinamide]",3.93 nM,22.8 nM
"COc1ncc(-c2cc(NC(=O)c3ccnc(C(C)(C)O)c3)ccc2C)cc1C1(O)COC1 [Example 73, N-(3-(5-(3-hydroxyoxetan-3-yl)-6-methoxypyridin-3-yl)-4-methylphenyl)-2-(2-hydroxypropan-2-yl)isonicotinamide]",3.09 nM,23.4 nM
"Cc1ncc(NC(=O)c2ccnc(C(C)(C)F)c2)cc1-c1cccc(C2(C)COC2)c1 [Example 69, 2-(2-fluoropropan-2-yl)-N-(6-methyl-5-(3-(3-methyloxetan-3-yl)phenyl)pyridin-3-yl)isonicotinamide]",0.895 nM,5.1 nM
"COc1ncc(-c2cc(NC(=O)c3ccnc(C(F)(F)F)c3)ccc2C)cc1C1(O)COC1 [Example 71, N-(3-(5-(3-hydroxyoxetan-3-yl)-6-methoxypyridin-3-yl)-4-methylphenyl)-2-(trifluoromethyl)isonicotin-amide]",0.351 nM,2.84 nM
"COc1ncc(-c2cc(NC(=O)c3ccnc(C(C)(C)F)c3)cnc2C)cc1C1(C(F)F)COC1 [Example 42, N-(5′-(3-(difluoromethyl)oxetan-3-yl)-6′-methoxy-2-methyl-[3,3′-bipyridin]-5-yl)-2-(2-fluoropropan-2-yl)isonicotinamide]",0.243 nM,1.42 nM
"COc1ncc(-c2cc(NC(=O)c3ccnc(C(F)(F)F)c3)cnc2C)cc1C1(O)COC1 [Example 75, N-(5′-(3-hydroxyoxetan-3-yl)-6′-methoxy-2-methyl-[3,3′-bipyridin]-5-yl)-2-(trifluoromethyl)isonicotin-amide]",6.36 nM,76.6 nM
"COc1cc(-c2cc(NC(=O)c3ccnc(C(C)(C)C#N)c3)ccc2C)cc(C2COC2)c1 [Example 23, 2-(2-cyanopropan-2-yl)-N-(3′-methoxy-6-methyl-5′-(oxetan-3-yl)-[1,1′-biphenyl]-3-yl)isonicotinamide]",25000 nM,25000 nM
"CCOc1ncc(-c2cc(NC(=O)c3ccnc(C(C)(C)C#N)c3)cnc2C)cc1C1(C)COC1 [Example 64, 2-(2-cyanopropan-2-yl)-N-(6′-ethoxy-2-methyl-5′-(3-methyloxetan-3-yl)-[3,3′-bipyridin]-5-yl)isonicotinamide]",1.18 nM,7.12 nM

# The remaining lines, values ahead:
IC50 [1],IC50 [2],Structure (SMILES)
3.09 nM,20.1 nM,"CCOc1ncc(-c2cc(NC(=O)c3cc(C(C)(C)N)cc(C(F)(F)F)c3)cnc2C)cc1C1(F)COC1 [Example 130, 3-(2-aminopropan-2-yl)-N-(6′-ethoxy-5′-(3-fluorooxetan-3-yl)-2-methyl-[3,3′-bipyridin]-5-yl)-5-(trifluoromethyl)benzamide]"
2.2 nM,10 nM,"CCOc1ncc(-c2cc(NC(=O)c3cc(C(C)(C)N)cc(C(F)(F)F)c3)ccc2C)cc1C1(O)COC1 [Example 120, 3-(2-aminopropan-2-yl)-N-(3-(6-ethoxy-5-(3-hydroxyoxetan-3-yl)pyridin-3-yl)-4-methylphenyl)-5-(trifluoromethyl)benzamide]"
2.68 nM,13.2 nM,"COc1ncc(-c2cc(NC(=O)c3cc(C(C)(C)N)cc(C(F)(F)F)c3)cnc2C)cc1C1(F)COC1 [Example 102, 3-(2-aminopropan-2-yl)-N-(5′-(3-fluorooxetan-3-yl)-6′-methoxy-2-methyl-[3,3′-bipyridin]-5-yl)-5-(trifluoromethyl)benzamide]"
1.25 nM,6.22 nM,"COc1ncc(-c2cc(NC(=O)c3ccnc(C(C)(F)F)c3)cnc2C)cc1C1(C#N)COC1 [Example 116, N-(5′-(3-cyanooxetan-3-yl)-6′-methoxy-2-methyl-[3,3′-bipyridin]-5-yl)-2-(1,1-difluoroethyl)isonicotin-amide]"
7.29 nM,49.3 nM,"COc1ncc(-c2cc(C(=O)Nc3ccnc(S(C)(=O)=O)c3)ccc2C)cc1C1(O)COC1 [Example 145, 3-(5-(3-hydroxyoxetan-3-yl)-6-methoxypyridin-3-yl)-4-methyl-N-(2-(methylsulfonyl)pyridin-4-yl)benzamide]"
0.424 nM,1.8 nM,"COc1ncc(-c2cc(NC(=O)c3cc(C(C)(C)N)cc(C(F)(F)F)c3)ccc2C)cc1C1(CF)COC1 [Example 108, 3-(2-aminopropan-2-yl)-N-(3-(5-(3-(fluoromethyl)oxetan-3-yl)-6-methoxypyridin-3-yl)-4-methylphenyl)-5-(trifluoromethyl)benzamide]"
0.364 nM,1.67 nM,"Cc1ccc(NC(=O)c2ccnc(C(C)(F)F)c2)cc1-c1cnc(-c2cnn(C)c2)c(C2(O)COC2)c1 [Example 144, 2-(1,1-difluoroethyl)-N-(3-(5-(3-hydroxyoxetan-3-yl)-6-(1-methyl-1H-pyrazol-4-yl)pyridin-3-yl)-4-methylphenyl)isonicotin-amide]"
0.225 nM,1.21 nM,"COc1ncc(-c2cc(NC(=O)c3cc(C(C)(C)N)cc(C(F)(F)F)c3)ccc2C)cc1C1(C(F)F)COC1 [Example 112, 3-(2-aminopropan-2-yl)-N-(3-(5-(3-(difluoromethyl)oxetan-3-yl)-6-methoxypyridin-3-yl)-4-methylphenyl)-5-(trifluoromethyl)benzamide]"
1.17 nM,6.47 nM,"COc1ncc(-c2cc(NC(=O)c3cc(C(C)(C)C#N)ccn3)ccc2C)cc1C1(O)COC1 [Example 85, 4-(2-cyanopropan-2-yl)-N-(3-(5-(3-hydroxyoxetan-3-yl)-6-methoxypyridin-3-yl)-4-methylphenyl)picolinamide]"
4.24 nM,31.8 nM,"COc1ncc(-c2cc(NC(=O)c3cc(C(C)(C)F)ccn3)cnc2C)cc1C1(O)COC1 [Example 94, 4-(2-fluoropropan-2-yl)-N-(5′-(3-hydroxyoxetan-3-yl)-6′-methoxy-2-methyl-[3,3′-bipyridin]-5-yl)picolinamide]"
0.146 nM,0.58 nM,"COc1ncc(-c2cc(NC(=O)c3ccnc(C(C)(C)C#N)c3)ccc2C)cc1C1(CF)COC1 [Example 106, 2-(2-cyanopropan-2-yl)-N-(3-(5-(3-(fluoromethyl)oxetan-3-yl)-6-methoxypyridin-3-yl)-4-methylphenyl)isonicotin-amide]"
0.128 nM,0.417 nM,"COc1ncc(-c2cc(NC(=O)c3ccnc(C(C)(C)F)c3)ccc2C)cc1C1(CF)COC1 [Example 104, N-(3-(5-(3-(fluoromethyl)oxetan-3-yl)-6-methoxypyridin-3-yl)-4-methylphenyl)-2-(2-fluoropropan-2-yl)isonicotinamide]"
1.01 nM,8.03 nM,"COc1ncc(-c2cc(NC(=O)c3cc(C(C)(C)F)ccn3)cnc2C)cc1C1(F)COC1 [Example 93, N-(5′-(3-fluorooxetan-3-yl)-6′-methoxy-2-methyl-[3,3′-bipyridin]-5-yl)-4-(2-fluoropropan-2-yl)picolinamide]"
1.13 nM,3.73 nM,"COc1ncc(-c2cc(NC(=O)c3ccnc(C(C)(C)F)c3)cnc2C)cc1C1(F)COC1 [Example 82, N-(5′-(3-fluorooxetan-3-yl)-6′-methoxy-2-methyl-[3,3′-bipyridin]-5-yl)-2-(2-fluoropropan-2-yl)isonicotinamide]"
0.333 nM,2.2 nM,"COc1ncc(-c2cc(NC(=O)c3cc(C(C)(F)F)ccn3)ccc2C)cc1C1(O)COC1 [Example 92, 4-(1,1-difluoroethyl)-N-(3-(5-(3-hydroxyoxetan-3-yl)-6-methoxypyridin-3-yl)-4-methylphenyl)picolinamide]"
0.372 nM,2.28 nM,"CCOc1ncc(-c2cc(NC(=O)c3ccnc(C(F)(F)F)c3)ccc2C)cc1C1(O)COC1 [Example 124, N-(3-(6-ethoxy-5-(3-hydroxyoxetan-3-yl)pyridin-3-yl)-4-methylphenyl)-2-(trifluoromethyl)isonicotin-amide]"
